What was measured:
[1] = system: female antennae of sand fly Phlebotomus papatasi and mosquitoes Aedes aegypti, Anopheles gambiae, Anopheles stephensi; experiment: GC-EAD responses of sand fly and three mosquitoes to synthetic mixtures; settings: about 100 ng of each compound, on one or more of the sand fly or the mosquitoes, FIGS. 9 and 10
In short: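 Female antennae recorded by GC-EAD (split with FID) against synthetic mixtures with about 100 ng of each compound, 1-octen-3-ol as positive control; polar Innowax column, 50° C 2 min then 10° C/min to 240° C. Effluent in humidified air at 0.5 liter/min over severed-head preparation with Ringer-filled electrodes.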

[2] = system: Ae. aegypti and An. stephensi; experiment: K&D module bioassay, statements pooled for both mosquito species; format: in vivo, Aedes aegypti; Anopheles stephensi; settings: DEET at 10 μg/cm^2, oxide and ketone at similar or lower dosages as DEET, oils at about 10 mg/d release
Protocol: (§1) The bioassays were conducted with a six-cell in vitro K&D module system, as disclosed in Klun and Debboun, J. Med. Entomol. 37:177-181 (2000), loaded with an “artificial blood” (CPDA+ATP) solution.
Clove essential oil, patchouli oil, and EAD-active potential repellents, β-caryophyllene, isocaryophyllene, (+)-longifolene, and their 1:1:1 mixture, plus α-guaiene, caryophyllene oxide, and a β-caryophyllene ketone, were tested using the six-cell in vitro K&D module system (Klun and Debboun, J. Med. Entomol. 37:177-181 (2000)) loaded with an “artificial blood” (CPDA+ATP) solution on both Ae. aegypti and An. stephensi in a dose-response fashion. The K&D in vitro assay system has three components: (1) a Plexiglas™ 29.7 cm.×7.1 cm K&D module composed of six adjacent cells, each designed to hold mosquitoes and each having a rectangular 3×4 cm floor hole that is opened and closed by a sliding door; (2) a Plexiglas™ six-well 29.7 cm×7.1 cm water water-bath warmed (38° C.) reservoir with six 3×4 cm wells designed to match the sliding-door openings of the K&D module base and to contain 6 mL warmed “artificial blood” wells covered with a collagen membrane; and (3) a 29.7 cm×7.1 cm'0.4 cm Teflon® separator having six rectangular openings like the K&D module. The K&D module was connected to a constant temperature water circulator at 38° C. The cells were covered with an Edicol collagen membrane strip. Nylon organdy strips with ink cell patterns were numbered and randomly treated with five dilutions of the tested chemical in ethanol (ethanol alone as blank control), plus DEET (ca. 10 μg/cm^2) as a positive control. This treated nylon organdy strip was placed on top of the collagen membrane. The upper section of the K & D module with the six cells each containing 5 mosquitoes (5-10 d old, starved for 24 hr before testing) was placed on top of the nylon strip. […] The experiments were allowed to run for 3 minutes, and the number of mosquitoes feeding (biting) in each cell was recorded. […]

Aedes aegypti [3] = experiment: Y-tube olfactometer behavioral bioassay (spatial repellency); format: in vivo; settings: for Number of mosquitoes in each arm: Blank / Number of mosquitoes in each arm: Bottom / Number of mosquitoes in each arm: Repellent: Aedes aegypti females, release rate per chemical (1-60 mg/day), 10 min; for Number of mosquitoes in each arm: Repellent: two replicates pooled; for SAI (Spatial Activity Index): Aedes aegypti, (Nc − Nt)/(Nc + Nt), −1 to 1, zero indicating no response
Protocol: (§2) Aegypti and An. stephensi, and one species of sand fly, P. papatasi. Both the mosquitoes and the sand flies used in the study were from colonies maintained at the Walter Reed Army Institute of Research, Department of Entomology, Silver Spring, Md. This Y-tube bioassay system, equipped with CO2-enriched air (ca. 1 l/min) as an attractant, was made from three clear acrylic tubes (4″ diameter; 12″ length) with symmetrical 120° angles among the three tube arms; and a screen butterfly valve on the top part of the bottom releasing tube. These spatial repellency tests were carried out during 8:00 am-12:00 pm (photophase) time period for Ae. aegypti and 1:00-5:00 pm (shifted scotophase) time period for the species of night-flying mosquitoes and sand fly in a temperature and humidity controlled testing room (23-25° C. and 20-40% RH). Female mosquitoes or sand flies were stored at ˜25-26° C., 50-89% RH, 12:12 hr. (L/D), fed with 10% sucrose solution before testing. The candidate chemical (individual or mixture) dispenser and a blank control were placed in the upper left or right arm of the Y-tube before releasing 25-40, 6 to 10 day-old female mosquitoes (or 3 to 10 day-old sand flies) into the bottom tube via a small hole. After a 30-60 sec acclimation period, the butterfly screen valve (door) on the top of the bottom tube was opened. After 10 min., the valve was closed and the numbers of mosquitoes or sand flies in each arm (including the bottom tube) were counted. In order to minimize the position effect, the same experiment was repeated once with the treatment and blank control arms shifted using a new (clean) Y-tube olfactometer and a new batch of mosquitoes/sand flies. Data from these two replicates were pooled for χ2 goodness of fit test (df=1) between the treatment and blank control.

Anopheles stephensi [4] = experiment: as above; format: in vivo; settings: for Number of mosquitoes in each arm: Repellent / Number of mosquitoes in each arm: Blank / Number of mosquitoes in each arm: Bottom: Anopheles stephensi females, 10 min; for Number of mosquitoes in each arm: Repellent: release rate per chemical (1-60 mg/day; β-Caryophyllene 10 mg/day); for Number of mosquitoes in each arm: Blank / Number of mosquitoes in each arm: Bottom: release rate per chemical (β-Caryophyllene 10 mg/day); for SAI (Spatial Activity Index): Anopheles stephensi, β-Caryophyllene 10 mg/day
Protocol: as §2

Phlebotomus papatasi = experiment: as above; format: in vivo; settings: for SAI (Spatial Activity Index): Phlebotomus papatasi; for Number of mosquitoes in each arm: Repellent: Phlebotomus papatasi (sand fly) females, release rate per chemical (1-35 mg/day); for Number of mosquitoes in each arm: Repellent / Number of mosquitoes in each arm: Blank / Number of mosquitoes in each arm: Bottom: 10 min; for Number of mosquitoes in each arm: Blank / Number of mosquitoes in each arm: Bottom: Phlebotomus papatasi females, release rate per chemical
Protocol: as §2

Aedes aegypti [5] = experiment: K&D module behavioral bioassay (topical repellency, biting); format: in vivo
Protocol: as §1
(§3) Clove essential oil, patchouli oil, and EAD-active potential repellents, β-caryophyllene, isocaryophyllene, (+)-longifolene, and their 1:1:1 mixture, plus α-guaiene, caryophyllene oxide, and a β-caryophyllene ketone, were tested using the six-cell in vitro K&D module system (Klun and Debboun, J. Med. Entomol. 37:177-181 (2000)) loaded with an “artificial blood” (CPDA+ATP) solution on both Ae. aegypti and An. stephensi in a dose-response fashion. The K&D in vitro assay system has three components: (1) a Plexiglas™ 29.7 cm.×7.1 cm K&D module composed of six adjacent cells, each designed to hold mosquitoes and each having a rectangular 3×4 cm floor hole that is opened and closed by a sliding door; (2) a Plexiglas™ six-well 29.7 cm×7.1 cm water water-bath warmed (38° C.) reservoir with six 3×4 cm wells designed to match the sliding-door openings of the K&D module base and to contain 6 mL warmed “artificial blood” wells covered with a collagen membrane; and (3) a 29.7 cm×7.1 cm'0.4 cm Teflon® separator having six rectangular openings like the K&D module. The K&D module was connected to a constant temperature water circulator at 38° C. The cells were covered with an Edicol collagen membrane strip. Nylon organdy strips with ink cell patterns were numbered and randomly treated with […] of the tested chemical in ethanol (ethanol alone as blank control), plus DEET (ca. 10 μg/cm^2) as a positive control. This treated nylon organdy strip was placed on top of the collagen membrane. The upper section of the K & D module with the six cells each containing 5 mosquitoes (5-10 d old, starved for 24 hr before testing) was placed on top of the nylon strip. The doors to the cells were slid open so the mosquitoes could be free to feed on the “artificial blood” via the collagen membrane if they were hungry. The experiments were allowed to run for 3 minutes, and the number of mosquitoes feeding (biting) in each cell was recorded. After each experiment, the nylon and collagen strips were removed. The CPDA+ATP solution was removed and allowed to dry prior to starting the next experiment. The experiments on each chemical and each mosquito species were run three times before the bottom section with circulated water was cleaned prior to use again.

Anopheles stephensi [6] = experiment: as above; format: in vivo
Protocol: as §1, §3

[7] = system: male false stable fly Muscina stabulans antenna and female mosquito Aedes (Ochlerotatus) increpitus Dyar antenna; experiment: GC-EAD responses of false stable fly and Aedes increpitus to a synthetic mixture; settings: about 100 ng of each compound, FIG. 5
Protocol: The GC-EAD responses of the male false stable fly Muscina stabulans antenna and the female mosquito Aedes (Ochlerotatus) increpitus Dyar antenna were tested on a synthetic mixture of linalool and two representative sesquiterpene hydrocarbons, β-caryophyllene and α-humulene, and one sesquiterpene oxide, β-caryophyllene oxide, with about 100 ng of each compound in the mixture.
The following procedures were employed to test the EAD response of an insect antenna to a repellent compound. The GC-EAD technique provides an efficient tool for screening behaviorally active repellents. Several synthetic mixtures of potential insect repellent candidates, mostly sesquiterpene hydrocarbons and derivatives, were analyzed in splitless mode using a Varian CP-3800 GC equipped with a polar column (Innowax; 1.0 μm film thickness, 30 m×0.53 mm ID; J & W Scientific), and a 1:1 effluent splitter that allowed simultaneous flame ionization detection (FID) and EAD of the separated volatile compounds. Helium was used as the carrier gas, and the injector temperature was 220° C. The column temperature was 50° C. for 2 min, rising to 240° C. at 10° C./min, then held for 10 min. The outlet for the EAD was held in a humidified air stream flowing at 0.5 liter/min. over an antennal preparation. A glass capillary indifferent electrode filled with Beadle-Ephrussi Ringer, and grounded via a silver wire, was inserted into the severed insect's head with the antennae. A similar recording electrode connected to a high-impedance DC amplifier with automatic baseline drift compensation was placed in contact with the distal end of one antenna (Zhang et al., Chemoecology, 10:69-80 (2000)). The antennal signals were stored and analyzed on a PC equipped with a serial IDAC interface box and the program EAD ver. 2.5 (Syntech, Hilversum, The Netherlands). The compound 1-octen-3-ol (known attractant for many flies and mosquitoes) was included in most of the synthetic mixtures, as a positive control. The results of the experiments are shown in FIGS. 1-10 and described above.

[8] = 10 μg/cm^2, DEET values are the positive control run with the chemical

Row | SMILES | GC-EAD antennal activity [1] | topical repellency / feeding deterrence, in words [2] | Number of mosquitoes in each arm: Blank (Aedes aegypti [3]) | Number of mosquitoes in each arm: Bottom (Aedes aegypti [3]) | Number of mosquitoes in each arm: Repellent (Aedes aegypti [3]) | SAI (Spatial Activity Index) (Aedes aegypti [3]) | Number of mosquitoes in each arm: Repellent (Anopheles stephensi [4]) | Number of mosquitoes in each arm: Blank (Anopheles stephensi [4]) | Number of mosquitoes in each arm: Bottom (Anopheles stephensi [4]) | SAI (Spatial Activity Index) (Anopheles stephensi [4]) | SAI (Spatial Activity Index) (Phlebotomus papatasi) | Number of mosquitoes in each arm: Repellent (Phlebotomus papatasi) | Number of mosquitoes in each arm: Blank (Phlebotomus papatasi) | Number of mosquitoes in each arm: Bottom (Phlebotomus papatasi) | % of biting (±SE) (N = 3) (Aedes aegypti [5]; 1 μg/cm^2, 3 minutes) | % of biting (±SE) (N = 3) (Aedes aegypti [5]; 5 μg/cm^2) | % of biting (±SE) (N = 3) (Aedes aegypti [5]; [8]) | % of biting (±SE) (N = 3) (Aedes aegypti [5]; 50 μg/cm^2) | % of biting (±SE) (N = 3) (Anopheles stephensi [6]; 1 μg/cm^2, 3 minutes) | % of biting (±SE) (N = 3) (Anopheles stephensi [6]; 5 μg/cm^2) | other results
1 | CCN(CC)C(=O)c1cccc(C)c1 [DEET, N,N-diethyl-m-toluamide, reference compound] | does not appear to have elicited antennal activity | significantly inhibited/blocked the feeding (biting) activity |  |  |  |  |  |  |  |  |  |  |  |  |  |  |  |  |  |  | 
2 | C/C1=C\CCC(=O)[C@H]2CC(C)(C)[C@@H]2CC1 [β-Caryophyllene Ketone, β-caryophyllene ketone] |  | even stronger topical repellency | 37 | 20 | 28 | 0.14 | 10 | 18 | 32 | 0.29 | 0.18 | 20 | 29 | 23 | 20 ± 0bc % | 13 ± 7ab % | 7 ± 7ab % | 0 ± 0a % | 47 ± 7cd % | 33 ± 7bc % | % of biting (±SE) (N = 3) (Anopheles stephensi [6]; [8]): 20 ± 12ab %; % of biting (±SE) (N = 3) (Anopheles stephensi [6]; 50 μg/cm^2): 0 ± 0a %
3 | C=C1CC[C@H]2O[C@]2(C)CC[C@@H]2[C@@H]1CC2(C)C [β-Caryophyllene Oxide, β-Caryophyllene oxide] | antennally active | even stronger topical repellency | 38 | 26 | 15 | 0.43 | 15 | 24 | 23 | 0.23 | 0.91 | 4 | 83 | 5 | 27 ± 7b % | 27 ± 7b % | 0 ± 0a % | 0 ± 0a % | 27 ± 13abc % | 47 ± 7bc % | GC-EAD antennal activity [7]: active on at least one of the insects tested; % of biting (±SE) (N = 3) (Anopheles stephensi [6]; [8]): 20 ± 12ab %; % of biting (±SE) (N = 3) (Anopheles stephensi [6]; 50 μg/cm^2): 0 ± 0a %
